# Assay results as given in BindingDB's records for doi:10.1016/j.bmcl.2011.01.001 (Abbott Laboratories, 2011).
# pKi: −log10 of the molar value.
# Molecular target: Aurora kinase A (Homo sapiens) (UniProt O14965)
# Assay: Inhibition of aurora 2
# Chain of Aurora kinase A (Homo sapiens) (O14965 whole entry, looked up): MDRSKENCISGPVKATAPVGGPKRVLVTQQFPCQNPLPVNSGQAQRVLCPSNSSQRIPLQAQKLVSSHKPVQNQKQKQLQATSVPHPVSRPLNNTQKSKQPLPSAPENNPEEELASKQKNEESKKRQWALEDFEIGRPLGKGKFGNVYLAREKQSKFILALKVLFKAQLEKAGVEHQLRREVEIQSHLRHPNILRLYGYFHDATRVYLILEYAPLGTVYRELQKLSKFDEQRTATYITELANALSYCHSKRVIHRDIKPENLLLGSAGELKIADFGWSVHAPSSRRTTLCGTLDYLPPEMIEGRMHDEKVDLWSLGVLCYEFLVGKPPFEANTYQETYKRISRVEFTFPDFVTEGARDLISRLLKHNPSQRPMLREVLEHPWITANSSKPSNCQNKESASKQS
row,pKi,SMILES
1,< 5.31,"CN(C)CCn1cnc(-c2ccc(F)cc2)c1-c1ccc2[nH]ncc2c1 [2-(4-(4-fluorophenyl)-5-(1H-indazol-5-yl)-1H-imidazol-1-yl)-N,N-dimethylethanamine]"
2,6.09,c1ccc(CCNc2nc(-c3ccc4[nH]ncc4c3)cs2)cc1 [4-(1H-indazol-5-yl)-N-phenethylthiazol-2-amine]
3,5.35,Cc1nc(-c2ccc3[nH]ncc3c2)cs1 [4-(1H-indazol-5-yl)-2-methylthiazole]
4,5.47,CCNc1nc(-c2ccc3[nH]ncc3c2)cs1 [N-ethyl-4-(1H-indazol-5-yl)thiazol-2-amine]
5,5.68,"c1cn2c(NC3CCCCC3)c(-c3ccc4[nH]ncc4c3)nc2cn1 [N-cyclohexyl-2-(1H-indazol-5-yl)imidazo[1,2-a]pyrazin-3-amine]"
6,5.55,"Clc1ccc(Nc2c(-c3ccc4[nH]ncc4c3)nc3ncccn23)cc1 [N-(4-chlorophenyl)-2-(1H-indazol-5-yl)imidazo[1,2-a]pyrimidin-3-amine]"
7,5.06,"c1ccn2c(NC3CCCCC3)c(-c3ccc4[nH]ncc4c3)nc2c1 [N-cyclohexyl-2-(1H-indazol-5-yl)imidazo[1,2-a]pyridin-3-amine]"
8,< 5.31,"c1ccc(Nc2nc(-c3ccc4[nH]ncc4c3)c(-c3ccccc3)s2)cc1 [4-(1H-indazol-5-yl)-N,5-diphenylthiazol-2-amine]"
9,< 5.31,Fc1ccc(-c2ncn(CCCN3CCOCC3)c2-c2ccc3[nH]ncc3c2)cc1 [4-(3-(4-(4-fluorophenyl)-5-(1H-indazol-5-yl)-1H-imidazol-1-yl)propyl)morpholine]
10,< 5.31,c1ccc(CNc2nc(-c3ccc4[nH]ncc4c3)c(-c3ccccc3)s2)cc1 [N-benzyl-4-(1H-indazol-5-yl)-5-phenylthiazol-2-amine]
11,< 5.31,"c1ccc(-c2c(-c3ccc4[nH]ncc4c3)nc3ncccn23)cc1 [2-(1H-indazol-5-yl)-3-phenylimidazo[1,2-a]pyrimidine]"
12,< 5.31,"CCCCNc1c(-c2ccc3[nH]ncc3c2)nc2ncccn12 [N-butyl-2-(1H-indazol-5-yl)imidazo[1,2-a]pyrimidin-3-amine]"
13,< 5.31,Fc1ccc(-c2ncn(C3CCN(Cc4ccccc4)C3)c2-c2ccc3[nH]ncc3c2)cc1 (centres undefined) [5-(1-(1-benzylpyrrolidin-3-yl)-4-(4-fluorophenyl)-1H-imidazol-5-yl)-1H-indazole]
14,5.67,Nc1nc(-c2ccc3[nH]ncc3c2)cs1 [4-(1H-indazol-5-yl)thiazol-2-amine]
